From patent US20020062499A1, “Methods for translational repression of gene expression in plants” (priority 2000, published 2002)

Assays:
transgenic corn lines = assay: Field test of MS2 translation repression system transgenic corn lines; assay type: in vivo; conditions: 32 oz/acre Roundup® at the 6-8 leaf stage; transgenic TRS corn lines
Description: Field tests are conducted to evaluate the vegetative tolerance and male sterility of transgenic corn lines selected from the greenhouse tests. Lines for the field trial are selected based on previous scores showing good to excellent vegetative tolerance, very high or complete male sterility induced by glyphosate, and available seed supply. The pedigree of plants in the field test is either [(Ro×B73)×B73] or (B73×Ro). Based on these pedigrees, it is expected that half of the plants in a plot would be killed by glyphosate (formulated Roundup®) application, because they would not contain the transgene.
The field test is set up in two blocks, each block containing four groups of plots that would receive a single spray treatment. The treatments are (1) no spray, (2) 32 oz/acre Roundup® at the 1-2 leaf stage, (3) 32 oz/acre Roundup® at the 4-5 leaf stage, and (4) 32 oz/acre Roundup® at the 6-8 leaf stage. Plants are scored for male fertility when they began to flower, and scoring is repeated every 1-2 days for about eight days. Observations included the length of time between emergence of the tassel from the first plants and from the last plant in each plot. A sample of the anthers is collected from each plant, and the viability of pollen is judged with the aid of a hand-held microscope.

[1] = system: non-transgenic parental control plant (M202); assay: Glyphosate treatment of non-transgenic parental control rice; assay type: in vivo; conditions: 64 oz./A glyphosate
From the text: The anther-specific promoter P-Ta.1674-19 is amplified from wheat genomic DNA by Genome Walker™ as a HindIII/BglII fragment, digested with these two enzymes, and the fragment ligated into pMON42180 (FIG. 3) digested with the same enzymes, resulting in pMON52000. The plant expression vector pMON52001 (FIG. 27) is constructed by taking the Not I fragment containing of P-Ta. 1674-19/I-Zm.Hsp70/MS2. CP:en/T-AGRTU.nos from pMON52000 and ligating into pMON42916 (FIG. 7) digested with Not I. pMON42438 (FIG. 28) and pMON42439 (FIG. 29) are constructed by replacing the wheat P-Ta. 1674-19 promoter element of pMON52001 with corn anther-specific promoters P-700353038 and P-70053844, respectively. pMON42945 (FIG. 30) is constructed by ligating the Not I fragment consisting of P-L1482830/I-Zm.Hsp70/MS2.CP:en/T-AGRTU.nos into pMON42916. These promoter elements are isolated from wheat and corn anther DNA libraries by Genome Walker™. Rice variety M202 is transformed by Agrobacterium-mediated transformation. […] Vegetative tolerance to the glyphosate is visually evaluated 21 DAT (day after treatment) based on a scale of 0 to 5 (as discussed above). […] Male sterility is scored at maturity by counting the number of empty florets and dividing by the total number of florets (filled plus empty) in each panicle.

O=C(O)CNCP(=O)(O)O [glyphosate, N-phosphonomethylglycine]
male sterility under field conditions (transgenic corn lines): very effective for producing male sterility | effect of the glyphosate treatment on the non-transgenic parental control plant [1]: killed
